Structures can show the parent of a compound that is named as a salt.
What was measured:
avidin = avidin (Gallus gallus, UniProt P02701); experiment: Neutralization with avidin: avidin-coated beads, centrifugation, anti-factor Xa activity assayed in supernatant; assay type: binding; settings: after centrifugation
Experimental: The resulting mixture is centrifuged and the anti-factor Xa activity is assayed in the supernatant.

[1] = target: coagulation factor Xa, in the presence of antithrombin (Homo sapiens, UniProt P01008); experiment: Antithrombin-dependent anti-factor Xa activity (in vitro inhibition of coagulation factor Xa); assay type: biochemical; settings: read-out: IC50 (dose enabling 50% inhibition), anti-Xa activity (converted)
Source text: The activity of the compounds according to the invention was studied in an in vitro model of inhibition of coagulation factor Xa, in the presence of antithrombin (antithrombin-dependent anti-factor Xa activity), as described by J.-M. Herbert et al., Blood, 1998, 91, 4197-4205.

biotinidase = target: T1, biotinidase (Homo sapiens, UniProt P43251); experiment: Metabolic stability in human plasma medium at pH 6.0 with respect to biotinidase activity; assay type: in vitro ADME; settings: pooled human plasma, pH 6.0, 1 μM, 37° C., LC/MS-MS
T1 construct: Ten individual batches of human plasma originating from 5 men and 5 women; from tissue; host or cells: pooled human plasma (5 men, 5 women), sodium citrate
T1 sequence (P43251 22-523): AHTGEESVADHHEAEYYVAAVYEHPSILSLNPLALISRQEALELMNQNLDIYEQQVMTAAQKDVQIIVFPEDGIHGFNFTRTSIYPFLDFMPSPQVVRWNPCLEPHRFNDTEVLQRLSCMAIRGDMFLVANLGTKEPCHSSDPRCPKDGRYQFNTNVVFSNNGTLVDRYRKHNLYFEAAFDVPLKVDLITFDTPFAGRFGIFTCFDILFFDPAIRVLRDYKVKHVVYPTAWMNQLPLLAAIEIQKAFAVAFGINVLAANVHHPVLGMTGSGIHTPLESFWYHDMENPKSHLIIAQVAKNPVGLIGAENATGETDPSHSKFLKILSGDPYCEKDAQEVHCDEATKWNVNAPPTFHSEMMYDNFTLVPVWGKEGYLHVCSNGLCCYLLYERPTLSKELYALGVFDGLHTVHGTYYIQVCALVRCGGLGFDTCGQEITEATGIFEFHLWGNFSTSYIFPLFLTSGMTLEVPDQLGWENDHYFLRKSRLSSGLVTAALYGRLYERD
Experimental: The metabolic stability of the compounds according to the invention with respect to biotinidase activity was studied on human plasma having been sampled on sodium citrate as anticoagulant. Ten individual batches of human plasma originating from 5 men and 5 women, constituting the evaluation matrix, were used and pooled in order to evaluate the metabolic stability of the compounds. The human plasma was incubated under the following conditions: • incubation medium (freshly prepared): 740 μl of 54 mM of sodium phosphate buffer, pH 6.0, containing 1.08 mM of disodium EDTA and 4.3 mM of cysteamine hydrochloride, • human plasma: 40 μl • concentrations of the compounds to be studied: 1 μM • incubation time: 24 hours • incubation temperature: 37° C.
The reaction is initiated by adding the compound to be studied, after a 10-minute period of preincubation of the plasma and of the incubation medium. At the end of the incubation period (24 hours), the reaction is stopped.
The compounds according to the invention are quantified according to a specific LC/MS-MS method.
The metabolization of each compound studied is measured by monitoring the disappearance of the unchanged product, the concentrations being determined for each incubation sample at time 0 hours and at time 24 hours, and the percentage metabolization being calculated according to the following formula: […]
The terms [compound at T 24H] and [compound at T 0H] correspond to the concentration of the compound to be studied in the reactive medium after 24 hours and before the beginning of the reaction, respectively.

Sequence of coagulation factor Xa, in the presence of antithrombin (P01008 33-464): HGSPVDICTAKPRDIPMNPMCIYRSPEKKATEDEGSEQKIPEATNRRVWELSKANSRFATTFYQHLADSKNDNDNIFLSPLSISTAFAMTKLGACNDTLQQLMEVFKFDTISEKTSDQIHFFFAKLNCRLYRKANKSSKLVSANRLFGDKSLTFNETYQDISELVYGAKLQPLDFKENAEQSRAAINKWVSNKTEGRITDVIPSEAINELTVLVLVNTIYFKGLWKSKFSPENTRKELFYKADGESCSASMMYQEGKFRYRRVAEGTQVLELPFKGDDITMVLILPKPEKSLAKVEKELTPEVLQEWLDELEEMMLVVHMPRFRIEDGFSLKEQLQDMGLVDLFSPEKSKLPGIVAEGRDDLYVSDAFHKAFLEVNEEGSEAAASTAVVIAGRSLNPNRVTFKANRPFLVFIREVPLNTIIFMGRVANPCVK
Sequence of avidin (P02701 25-152, species assumed): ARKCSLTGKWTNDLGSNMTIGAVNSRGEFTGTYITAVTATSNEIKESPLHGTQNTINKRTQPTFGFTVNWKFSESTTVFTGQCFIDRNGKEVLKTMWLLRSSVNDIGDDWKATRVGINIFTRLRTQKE

SMILES	anti-factor Xa activity in the supernatant (avidin; 0.00005 μg product/μg avidin) [%]	anti-factor Xa activity in the supernatant (avidin; 0.0001 μg product/μg avidin) [%]	anti-factor Xa activity in the supernatant (avidin; 0.001 μg product/μg avidin) [%]	anti-factor Xa activity in the supernatant (avidin; 0.01 μg product/μg avidin)	IC50 [1] [nM]	metabolization percentage (compound metabolized after 24 h) (biotinidase) [%]
COC1OC(COS(=O)(=O)O)C(OC2OC(C(=O)O)C(OC3OC(COS(=O)(=O)O)C(OC4OC(C(=O)O)C(OC5OC(COS(=O)(=O)O)C(OC)C(OC)C5NC(=O)CCCCCOCCCCCC5SCC6NC(=O)NC65)C(OC)C4OC)C(OS(=O)(=O)O)C3OS(=O)(=O)O)C(OC)C2OC)C(OS(=O)(=O)O)C1OS(=O)(=O)O [Compound 1, Methyl (2-deoxy-3,4-di-O-methyl-2-{[6-({5-[(3aS,4S,6aR)-2-oxohexahydro-1H-thieno[3,4-d]imidazol-4-yl]pentyl}oxy)hexanoyl]amino}-6-O-sulfonato-α-D-glucopyranosyl)-(1→4)-(2,3-di-O-methyl-β-D-glucopyranosyluronate)-(1→4)-(2,3,6-tri-O-sulfonato-α-D-glucopyranosyl)-(1→4)-(2,3-di-O-methyl-α-L-idopyranosyluronate)-(1→4)-2,3,6-tri-O-sulfonato-α-D-glucopyranoside, sodium salt]	1.3 ± 0.9	5.6 ± 1.0	6.0 ± 0.2	6.8 ± 2.0%	10	1.7
COC1OC(COS(=O)(=O)O)C(OC2OC(C(=O)O)C(OC3OC(COS(=O)(=O)O)C(OC4OC(C(=O)O)C(OC5OC(COS(=O)(=O)O)C(OC)C(OC)C5NC(=O)CCCCCN(C)CCCCCC5SCC6NC(=O)NC65)C(OC)C4OC)C(OS(=O)(=O)O)C3OS(=O)(=O)O)C(OC)C2OC)C(OS(=O)(=O)O)C1OS(=O)(=O)O [Compound 2, Methyl (2-deoxy-3,4-di-O-methyl-2-{[6-(methyl{5-[(3aS,4S,6aR)-2-oxohexahydro-1H-thieno[3,4-d]imidazol-4-yl]pentyl}amino)hexanoyl]amino}-6-O-sulfonato-α-D-glucopyranosyl)-(1→4)-(2,3-di-O-methyl-β-D-glucopyranosyluronate)-(1→4)-(2,3,6-tri-O-sulfonato-α-D-glucopyranosyl)-(1→4)-(2,3-di-O-methyl-α-L-idopyranosyluronate)-(1→4)-2,3,6-tri-O-sulfonato-α-D-glucopyranoside, sodium salt]	4.9 ± 1.4	3.0 ± 0.7	5.2 ± 0.5	4.1 ± 0.2%	9.93	−3.3
COC1OC(COS(=O)(=O)O)C(OC2OC(C(=O)O)C(OC3OC(COS(=O)(=O)O)C(OC4OC(C(=O)O)C(OC5OC(COS(=O)(=O)O)C(OC)C(OC)C5NC(=O)CCCCCN(C)C(=O)CCCCC5SCC6NC(=O)NC65)C(OC)C4OC)C(OS(=O)(=O)O)C3OS(=O)(=O)O)C(OC)C2OC)C(OS(=O)(=O)O)C1OS(=O)(=O)O [Compound 3, Methyl (2-deoxy-3,4-di-O-methyl-2-{[6-(methyl{5-[(3aS,4S,6aR)-2-oxohexahydro-1H-thieno[3,4-d]imidazol-4-yl]pentanoyl}amino)hexanoyl]amino}-6-O-sulfonato-α-D-glucopyranosyl)-(1→4)-(2,3-di-O-methyl-β-D-glucopyranosyluronate)-(1→4)-(2,3,6-tri-O-sulfonato-α-D-glucopyranosyl)-(1→4)-(2,3-di-O-methyl-α-L-idopyranosyluronate)-(1→4)-2,3,6-tri-O-sulfonato-α-D-glucopyranoside, sodium salt]	0.7 ± 2.4	1.2 ± 0.6	1.8 ± 0.2	0.9%^(1)	9.53	0.8
COC1OC(COS(=O)(=O)O)C(OC2OC(C(=O)O)C(OC3OC(COS(=O)(=O)O)C(OC4OC(C(=O)O)C(OC5OC(COS(=O)(=O)O)C(OC)C(OC)C5NC(=O)CCCCNC(=O)NCCCCC5SCC6NC(=O)NC65)C(OC)C4OC)C(OS(=O)(=O)O)C3OS(=O)(=O)O)C(OC)C2OC)C(OS(=O)(=O)O)C1OS(=O)(=O)O [Compound 4, Methyl (2-deoxy-3,4-di-O-methyl-2-({5-[({4-[(3aS,4S,6aR)-2-oxohexahydro-1H-thieno[3,4-d]imidazol-4-yl]butyl}carbamoyl)amino]pentanoyl}amino)-6-O-sulfonato-α-D-glucopyranosyl)-(1→4)-(2,3-di-O-methyl-β-D-glucopyranosyluronate)-(1→4)-(2,3,6-tri-O-sulfonato-α-D-glucopyranosyl)-(1→4)-(2,3-di-O-methyl-α-L-idopyranosyluronate)-(1→4)-2,3,6-tri-O-sulfonato-α-D-glucopyranoside, sodium salt]	3.6 ± 1.2	2.5 ± 2.3	4.5 ± 0.8	2.4 ± 0.0%	9.22	5.3
COC1OC(COS(=O)(=O)O)C(OC2OC(C(=O)O)C(OC3OC(COS(=O)(=O)O)C(OC4OC(C(=O)O)C(OC5OC(COS(=O)(=O)O)C(OC)C(OC)C5NC(=O)CCCCCNC(=O)CCCCC5SCC6NC(=O)NC65)C(OC)C4OC)C(OS(=O)(=O)O)C3OS(=O)(=O)O)C(OC)C2OC)C(OS(=O)(=O)O)C1OS(=O)(=O)O (stereo not drawn) [Idrabiotaparinux, idrabiotaparinux, reference compound]	1.2 ± 0.0	2.5 ± 1.1	2.6 ± 0.3	5.2 ± 3.4%	9.49	15.9

Source: patent US20130190268A1, “BIOTINYLATED POLYSACCHARIDES HAVING AN ANTITHROMBOTIC ACTIVITY AND IMPROVED METABOLIC STABILITY” (SANOFI, priority 2010, published 2013)
